Test results taken from US3983105A, “Penicillins” (Bayer Aktiengesellschaft, priority 1971, dated 1976).
Several values for one entry are separate records, joined by “and”; a condition that tells them apart may be missing. Equal entries are not always repeated.

What was measured:
Assay type in all cases: cell-based
Klebsiella-Aerobacter = experiment: MIC, test tube serial dilution, Klebsiella-Aerobacter
Staphylococcus aureus = experiment: MIC, test tube serial dilution, Staphylococcus aureus
Streptococcus faecalis = experiment: MIC, test tube serial dilution, Streptococcus faecalis
Proteus morganii = experiment: MIC, test tube serial dilution, Proteus morganii; conditions: unit assumed
Escherichia coli = experiment: MIC, test tube serial dilution, Escherichia coli
Pseudomonas aeruginosa = experiment: MIC, test tube serial dilution, Pseudomonas aeruginosa
Proteus vulgaris = experiment: MIC, test tube serial dilution, Proteus vulgaris
[1] = strain 1756 (BRL 1 756), 24 hours, 37°C

| Molecule | MIC (Klebsiella-Aerobacter; in µg/mL (unit assumed)) | MIC (Klebsiella-Aerobacter; strain 63, 24 hours, 37°C) | MIC (Staphylococcus aureus; [1]) | MIC (Streptococcus faecalis; unit assumed) | MIC (Proteus morganii) | MIC (Escherichia coli; strain 183/58, 24 hours, 37°C) | MIC (Escherichia coli; strain A 261, 24 hours, 37°C) | MIC (Pseudomonas aeruginosa; in µg/mL (unit assumed)) | MIC (Streptococcus faecalis; ATCC 9790, 24 hours, 37°C) | MIC (Pseudomonas aeruginosa; strain Bonn, 24 hours, 37°C) | MIC (Proteus vulgaris; unit assumed) | also measured |
| --- | --- | --- | --- | --- | --- | --- | --- | --- | --- | --- | --- | --- |
| CC1(C)S[C@@H]2[C@H](NC(=O)[C@H](NC(=O)N3CCN(C(=O)NS(C)(=O)=O)C3=O)c3ccccc3)C(=O)N2[C@H]1C(=O)O [Example 30, Sodium D(-)-α-[3-(methylsulphonyl-amino-carbonyl)-imidazolidinon-2-yl-1]-carbonylamino-benzylpenicillin] | 128 | 64 U/ml | 256 U/ml | 128 µg/mL | 8 µg/mL | 64 U/ml | > 256 U/ml | 32 |  |  |  |  |
| COC(=O)N1CCN(C(=O)N[C@@H](C(=O)N[C@@H]2C(=O)N3[C@@H]2SC(C)(C)[C@@H]3C(=O)O)c2ccccc2)C1=O [Example 3, Sodium D(-)-α-[(3-methoxycarbonyl-imidazolidin-2-on-1-yl)-carbonylamino]-benzylpenicillin] |  | 16 U/ml | > 256 U/ml |  | 8 µg/mL | 4 U/ml |  |  | 64 U/ml | 16 U/ml | 8 µg/mL | MIC (Klebsiella-Aerobacter; strain K 10, 24 hours, 37°C): 16 U/ml; MIC (Pseudomonas aeruginosa; strain Walter, 24 hours, 37°C): 16 U/ml |
| CC(=O)N1CCN(C(=O)N[C@@H](C(=O)N[C@@H]2C(=O)N3[C@@H]2SC(C)(C)[C@@H]3C(=O)O)c2ccccc2)C1=O [Example 1, Sodium D(-)-α-[(3-acetyl-imidazolidin-2-on-1-yl)-carbonylamino]-benzylpenicillin] |  | 25 U/ml | 400 U/ml |  | 6 µg/mL | 3 U/ml | 400 U/ml |  | 25 U/ml | 25 U/ml | 6 µg/mL | MIC (Klebsiella-Aerobacter; strain K 10, 24 hours, 37°C): 100 U/ml; MIC (Pseudomonas aeruginosa; strain Walter, 24 hours, 37°C): 50 U/ml |
| CC1(C)S[C@@H]2[C@H](NC(=O)[C@H](NC(=O)N3CCN(S(C)(=O)=O)C3=O)c3ccccc3)C(=O)N2[C@H]1C(=O)O [Penicillin No. 1 (Table 3), Sodium D(-)-α-[(3-methylsulphonyl-imidazolidin-2-on-1-yl)-carbonylamino]-benzylpenicillin] |  |  |  |  |  |  |  |  |  |  |  | MIC (Klebsiella-Aerobacter; Table 3, strain 63): 12.5 U/ml; MIC (Klebsiella-Aerobacter; Table 3, strain K 10): 6.2 U/ml; MIC (Staphylococcus aureus; Table 3, strain 133): < 0.8 U/ml; MIC (Staphylococcus aureus; Table 3, strain 1756E): 400 U/ml; MIC (Streptococcus faecalis; Table 3, ATCC 9790): 25 U/ml; MIC (Escherichia coli; Table 3, strain 14): < 0.8 U/ml; MIC (Escherichia coli; Table 3, strain 183/58): 1.6 U/ml; MIC (Escherichia coli; Table 3, strain A 261): 200 U/ml; MIC (Pseudomonas aeruginosa; Table 3, strain F 41): 50 U/ml; MIC (Pseudomonas aeruginosa; Table 3, strain Walter): 50 U/ml; MIC (Proteus vulgaris; Table 3, strain 1017): 3.1 U/ml |
| CCC(=O)N1CCN(C(=O)N[C@@H](C(=O)N[C@@H]2C(=O)N3[C@@H]2SC(C)(C)[C@@H]3C(=O)O)c2ccccc2)C1=O [Example 26, Sodium D(- )-α-[(2-oxo-3-propionyl-1-imidazolidinyl)-carbonylamino]-benzylpenicillin] | 32 | 16 U/ml | 64 U/ml | 8 µg/mL |  | 4 U/ml | > 256 U/ml | 32 |  |  |  | MIC (Pseudomonas aeruginosa; strain Walter, 24 hours, 37°C): 64 U/ml |
| CC1(C)S[C@@H]2[C@H](NC(=O)[C@H](NC(=O)N3CCN(C(=O)OC4CCCCC4)C3=O)c3ccccc3)C(=O)N2[C@H]1C(=O)O [Example 23, Sodium D(-)-α-[(3-cyclohexyloxycarbonyl-imidazolidin-2-on-1-yl)-carbonylamino]-benzylpenicillin] | 8 |  | 64 U/ml | 32 µg/mL |  | < 1 U/ml |  | 32 |  | 16 U/ml |  |  |
| CCCC(=O)N1CCN(C(=O)N[C@@H](C(=O)N[C@@H]2C(=O)N3[C@@H]2SC(C)(C)[C@@H]3C(=O)O)c2ccccc2)C1=O [Example 14, Sodium D(-)-α-[(3-n-butyryl-imidazolidin-2-on-1-yl)-carbonylamino]-benzylpenicillin] |  |  | 128 U/ml | 32 µg/mL |  | < 1 U/ml |  | 32 |  |  |  |  |
| CC1(C)S[C@@H]2[C@H](NC(=O)[C@H](NC(=O)N3CCN=C3NS(C)(=O)=O)c3ccccc3)C(=O)N2[C@H]1C(=O)O [Example 19, Sodium D(-)-α-[(2-methylsulphonylamino-imidazolin(2)-1-yl)-carbonylamino]-benzylpenicillin] |  |  |  |  | 32 µg/mL | 16 U/ml |  |  |  |  | 16 µg/mL | MIC (Proteus vulgaris; strain 1017, 24 hours, 37°C): 16 U/ml |
| Cc1ccc(S(=O)(=O)NC2=NCCN2C(=O)N[C@@H](C(=O)N[C@@H]2C(=O)N3[C@@H]2SC(C)(C)[C@@H]3C(=O)O)c2ccccc2)cc1 [Example 25, Sodium D(-)-α-[(2-tosylamino-imidazolin(2)-1-yl)-carbonylamino]-benzylpenicillin] |  | 64 U/ml | 64 U/ml |  |  | 32 U/ml | > 256 U/ml | 32 | 16 U/ml | 64 U/ml |  | MIC (Klebsiella-Aerobacter; strain K 10, 24 hours, 37°C): 64 U/ml; MIC (Escherichia coli; strain C 165, 24 hours, 37°C): 16 U/ml; MIC (Proteus vulgaris; strain 1017, 24 hours, 37°C): 16 U/ml |
| CC(C)(C)C(=O)N1CCN(C(=O)N[C@@H](C(=O)N[C@@H]2C(=O)N3[C@@H]2SC(C)(C)[C@@H]3C(=O)O)c2ccccc2)C1=O [Example 21, Sodium D(-)-α-[(3-pivaloyl-imidazolidin-2-on-1-yl)-carbonylamino]-benzylpenicillin] | 8 |  | 256 U/ml |  |  | < 1 U/ml | 256 U/ml | 32 | 64 U/ml |  |  |  |
| CC1(C)S[C@@H]2[C@H](NC(=O)[C@H](NC(=O)N3CCN(C(=O)c4ccccc4)C3=O)c3ccccc3)C(=O)N2[C@H]1C(=O)O [Example 12, Sodium D(-)-α-[(3-benzoyl-imidazolidin-2-on-1-yl)-carbonylamino]-benzylpenicillin] | 8 |  | 256 U/ml | 32 µg/mL | 8 µg/mL | < 1 U/ml | 64 U/ml | 32 |  |  |  |  |
| CC1(C)S[C@@H]2[C@H](NC(=O)[C@H](NC(=O)N3CCN(C(=O)N4CCCC4)C3=O)c3ccccc3)C(=O)N2[C@H]1C(=O)O [Example 8, Sodium D(-)-α-[(3-pyrrolidyl-N-carbonyl-imidazolidin-2-on-1-yl)-carbonylamino]-benzylpenicillin] |  |  | 128 U/ml | 128 µg/mL | 64 µg/mL | 4 U/ml |  | 32 |  |  | 32 µg/mL |  |
| CC1(C)S[C@@H]2[C@H](NC(=O)[C@H](NC(=O)N3CCN(C(N)=O)C3=O)c3ccccc3)C(=O)N2[C@H]1C(=O)O [Example 5, Sodium D(-)-α-[(3-aminocarbonyl-imidazolidin-2-on-1-yl)-carbonylamino]-benzylpenicillin] | 32 | 16 U/ml | > 256 U/ml | 32 µg/mL | 32 µg/mL | 4 U/ml | 256 U/ml | 32 |  |  |  |  |
| CC1(C)S[C@@H]2[C@H](NC(=O)[C@H](NC(=O)N3CCN(C(=O)Oc4ccccc4)C3=O)c3ccccc3)C(=O)N2[C@H]1C(=O)O [Example 11, Sodium D(-)-α-[(3-phenoxycarbonyl-imidazolidin-2-on-1-yl)-carbonylamino]-benzylpenicillin] | 4 |  |  | 16 µg/mL | 8 µg/mL |  |  | 32 and 16 |  |  | 16 µg/mL |  |
| CC(C)OC(=O)N1CCN(C(=O)N[C@@H](C(=O)N[C@@H]2C(=O)N3[C@@H]2SC(C)(C)[C@@H]3C(=O)O)c2ccccc2)C1=O [Example 7, Sodium D(-)-α-[(3-i-propyloxycarbonyl-imidazolidin-2-on-1-yl)-carbonylamino]-benzylpenicillin] |  |  | 128 U/ml |  |  | < 1 U/ml | > 256 U/ml | 8 | 16 U/ml | 16 U/ml |  | MIC (Proteus vulgaris; strain 1017, 24 hours, 37°C): 16 U/ml |
| CC1(C)S[C@@H]2[C@H](NC(=O)[C@H](NC(=O)N3CCN(C(=O)c4ccco4)C3=O)c3ccccc3)C(=O)N2[C@H]1C(=O)O [Example 13, Sodium D(-)-α-[(3-furoyl(2)-imidazolidin-2-on-1-yl)-carbonylamino]-benzylpenicillin] | 8 |  | 128 U/ml |  |  | < 1 U/ml |  |  | 16 U/ml |  |  | MIC (Pseudomonas aeruginosa; strain F 41, 24 hours, 37°C): 16 U/ml; MIC (Pseudomonas aeruginosa; strain Walter, 24 hours, 37°C): 16 U/ml |
| CC1(C)S[C@@H]2[C@H](NC(=O)[C@H](NC(=O)N3CCN(S(=O)(=O)c4ccccc4)C3=O)c3ccccc3)C(=O)N2[C@H]1C(=O)O [Example 27, Sodium D(-)-α-[(2-oxo-3-benzenesulphonyl-1-imidazolidinyl)-carbonylamino]-benzylpenicillin] |  |  | 64 U/ml |  |  | 0.5 U/ml | > 256 U/ml | 32 |  |  |  |  |
| Sodium D(-)-α-[(3-methylsulphonyl-4- or 5-methyl-imidazolidin-2-on-1-yl)-carbonylamino]-benzylpenicillin [Example 32] | 32 and 16 |  |  | 16 µg/mL | 8 µg/mL |  |  | 256 and 128 |  |  | 8 µg/mL |  |
| CC1(C)S[C@@H]2[C@H](NC(=O)[C@H](NC(=O)N3CCN(C(=O)Nc4ccccc4)C3=O)c3ccccc3)C(=O)N2[C@H]1C(=O)O [Example 10, Sodium D(-)-α-[(3-phenylaminocarbonyl-imidazolidin-2-on-1-yl)-carbonylamino]-benzylpenicillin] | 8 |  | > 256 U/ml | 128 µg/mL |  | 4 U/ml | > 256 U/ml |  |  | 64 U/ml | 8 µg/mL | MIC (Pseudomonas aeruginosa; strain Walter, 24 hours, 37°C): 256 U/ml |
